# Tests used:
# [1] = test system: subcutaneous xenograft tumor of human gastric cancer NCI-N87 cells; assay: Assay Example 5: in vivo pharmacodynamics, NCI-N87 xenograft; parameters: species or system BALB/c nude mouse; settings: 0.5 mg/kg
# Protocol: Purpose of the assay: to evaluate the in vivo efficacy of test compounds disclosed herein on subcutaneous xenograft tumor of human gastric cancer NCI-N87 cells in a BALB/c nude mouse model.
# Animals of the assay: female BALB/c nude mice, 6-8 weeks old, weighing 18-22 grams; supplier: shanghai sippr bk laboratory animals Ltd.
# Human gastric cancer NCI-N87 cells were cultured in monolayer in vitro. The culture conditions were RPMI-1640 medium plus 10% fetal bovine serum, 100 U/mL penicillin, 100 μg/mL streptomycin, 37° C., 5% CO2. The passaging was performed by conventional digestion with trypsin-EDTA twice a week. When the cell saturation was 80%-90%, the cells were collected, counted and inoculated.
# 0.2 mL (10×10^6) of NCI-N87 cells (PBS+Matrigel, 1:1) were inoculated subcutaneously on the right back of each mouse. When the average tumor volume reached 156 mm^3, administration to each group was started.
# The test compounds were formulated into a 0.05 mg/mL clear solution in the solvents of 10% NMP (N-methylpyrrolidone)+10% ethylene glycol stearate+80% water.
# The assay index is to investigate whether tumor growth is inhibited, delayed or cured. Tumor diameter was measured twice a week with a vernier caliper. The calculation formula of tumor volume is: V=0.5a×b^2, wherein a and b represent the long and short diameters of tumor, respectively.
# The antitumor efficacy of the compounds were evaluated by TGI (%) or tumor proliferation rate T/C (%). TGI (%) reflects the tumor growth inhibition rate. TGI (%) is calculated as follows: TGI (%)=[1−(average tumor volume at the end of administration for a certain treatment group−average tumor volume at the beginning of administration for this treatment group)/(average tumor volume at the end of treatment for a solvent control group−average tumor volume at the beginning of administration for this solvent control group)]×100%.
# Tumor proliferation rate T/C (%): the calculation formula is as follows: T/C (%)=average tumor volume at the end of administration for a certain treatment group/average tumor volume at the end of treatment for the solvent control group×100%.
# Statistical analysis included the mean and standard error (SEM) of tumor volume at each time point in each group (See Table 5-1 for specific data). […] The comparison between two groups was analyzed by T-test, and the comparison among three or more groups was analyzed by one-way ANOVA. […] All data analysis was carried out with SPSS 17.0. p<0.05 was considered a significant difference.
# [2] = Assay Example 7: pharmacokinetics in mice; assay type: in vivo; settings: mouse, female BALB/c mice, plasma, dose not given
# Protocol: Purpose of the assay: this assay aims to investigate in vivo plasma pharmacokinetics of the example compounds disclosed herein and the reference compound in female BALB/c mice after the single intravenous injection and intragastric administration thereof.
# Animals of the assay: female BALB/c nude mice, 7-9 weeks old, weighted 17-23 grams; supplier: shanghai sippr bk laboratory animals Ltd.
# Sample collection: at each time point, a 0.03 mL blood sample was collected from the saphenous vein of the test animal by puncture, and the actual blood collection time was recorded. All blood samples were added into commercial EDTA-K2 anticoagulation tubes with a specification of 1.5 mL (the supplier was Jiangsu KANGJIAN Medical Apparatus Co., Ltd.). Within half an hour after the blood sample was collected, the blood sample was centrifuged at 3000 g at 4° C. for 10 minutes, and the supernatant plasma was drawn, quickly placed in dry ice, and stored in a refrigerator at −80° C. for LC-MS/MS analysis.
# Data analysis: Plasma concentrations were processed using a non-compartmental model of WinNonlin™ Version6.3 (Pharsight, MountainView, Calif.) pharmacokinetic software, and pharmacokinetic parameters Cmax, Tmax, T1/2, and AUC0-last were calculated using a linear log trapezoid method.
# [3] = target: HER2 (ErbB2) (Homo sapiens, UniProt P04626); assay: in vitro enzyme activity, HER2 (ErbB2); assay type: biochemical; settings: human ErbB2, [γ-33P]ATP, poly(Glu, Tyr) substrate
# Protocol: (§1) The purpose of this assay is to detect the in vitro inhibitory activity of compounds on HER1 (ErbB1), HER2 (ErbB2), and HER4 (ErbB4). The enzymes used in this assay are human ErbB1, ErbB2 and ErbB4. Eurofins Pharma Discovery Service provided the method for activity detection.
# (§2) Steps and Method of the Assay (96-Well Plate):
# (§3) A buffer solution of the test compounds in a dilution of 5-fold (5 μL), polypeptide substrate poly(Glu, Tyr) (4:1) (2.5 μL), ErbB (4-20 ng, 2.5 μL), MnCl2 (50 mM, 1.25 μL), dH2O (3.75 μL), and [γ-^33P]ATP (10 μL) were added, and incubated at 30° C. for 10 minutes. The reaction was terminated by adding 3% phosphoric acid. 10 μL of the sample was taken and transferred to Filtermate A. The filter disc was washed 3 times with 75 mM phosphoric acid and once with methanol. The filter disc was transferred to a sealed plastic bag and the scintillation mixture (4 mL) was added. The intensity of the emitted photon was detected by a scintillation luminescence counter. The CPM (times/min) of the enzyme sample was compared with the CPM of the internal control sample. The level of photon intensity reflected the degree of the tyrosine kinase activity.
# [4] = test system: BT-474 cell; assay: inhibitory activity on cell proliferation (Cell-Titer-Glo), BT-474; assay type: cell-based; settings: Homo sapiens
# Excerpt: (§4) Purpose of the assay: to detect the inhibitory activity of the test compounds on cell proliferation.
# (§5) Principle of the assay: the luciferase in a Cell-Titer-Glo reagent produces oxidized luciferin with luciferin, oxygen and ATP as reaction substrates, and releases energy in the form of light. Since the luciferase reaction requires ATP, the total amount of light generated by the reaction is proportional to the total amount of ATP that reflects cell viability.
# (§6) Cell Titer-Glo cell viability assay kit with luminescence (Promega #G7573)
# (§7) According to the schematic diagram of the cell seed plate, cells were seeded in a 384- or 96-well plate at a density of 1000 cells per well and 25 μL per well, and 25 μL of PBS was added to the wells near edge of the place where no cells were seeded.
# (§8) (1) The stock solution of the compounds has a concentration of 10 mM, and the compounds were diluted with DMSO to an initial concentration of 4 mM. The compounds were added to the plate with stock solution of compounds, 9 μL per well.
# (§9) (2) The compounds were diluted with an ECHO liquid workstation, where 125 nL of compounds were added to each well of the cell plate, 125 nL of DMSO was added to each of the cell well in columns 2 and 23, and 125 nL of DMSO was added to each PBS well in columns 1 and 24.
# (§10) 2.3 After addition of the compounds, the cell plate was centrifuged at 1000 rpm for 1 min, and then placed in a 37° C., 5% CO2 incubator for incubation for 3 days.
# (§11) The cell plate was taken out from the incubator and equilibrated at room temperature for 30 minutes. 25 μL of Cell-Titer-Glo reagent was added to each well, shaken for one minute to allow well mixed, and centrifuged at 1000 rpm for 1 minute. After 10 minutes, the plate was read on PerkinElmer Envision, and the […] reading time was set to 0.2 second.
# [5] = target: HER4 (ErbB4) (Homo sapiens, UniProt Q15303); assay: in vitro enzyme activity, HER4 (ErbB4); assay type: biochemical; settings: human ErbB4, [γ-33P]ATP, poly(Glu, Tyr) substrate
# Protocol: as §1, §2, §3
# [6] = target: HER1 (ErbB1) (Homo sapiens, UniProt P00533); assay: in vitro enzyme activity, HER1 (ErbB1); assay type: biochemical; settings: human ErbB1, [γ-33P]ATP, poly(Glu, Tyr) substrate
# Protocol: as §1, §2, §3
# [7] = test system: NCI-N87 cell; assay: inhibitory activity on cell proliferation (Cell-Titer-Glo), NCI-N87; assay type: cell-based; settings: Homo sapiens
# Excerpt: as §4, §5, §6, §7, §8, §9, §10, §11
# [8] = test system: OE21 cell; assay: inhibitory activity on cell proliferation (Cell-Titer-Glo), OE21; assay type: cell-based; settings: Homo sapiens, OE21, 72 h, incubation for 3 days
# Excerpt: as §4, §5, §6, §7, §8, §9, §10, §11
# [9] = test system: OE19 cells; assay: CTG assay of OE19 cells; assay type: cell-based; settings: Homo sapiens, 72 hours of cell culture, Cell Titer Glo
# Protocol: OE19 cells with saturation of 80%-90% were digested with trypsin, centrifuged, resuspended and counted. The concentration of cells was adjusted to […]. OE19 cells were added to a 96-well cell culture plate to 8000 OE19 cells per well. The cells were cultured in a cell incubator containing 5% CO2 at 37° C. overnight.
# The stock solution of the test compounds was serially 3-fold diluted with DMSO to a total of 10 concentrations. Before the start of the assay, the serially diluted test compounds were further diluted to 10× compound solutions (the compound with a highest concentration contains 1% DMSO) with cell culture medium under sterile conditions. The prepared 10× compound solutions were added to the cell culture plate, and the 10 μL compound solution was added to each well. In this way, the final concentrations of staurosporine as the standard control and all the test compounds were obtained starting from […] as the initial concentration in a 3-fold serial dilution to get 10 test concentrations.
# After 72 hours of cell culture, the 96-well cell culture plate was taken out. Cell Titer Glo reagent was added at […], mixed, centrifuged, and incubated at room temperature in the dark for 10 minutes. The cell plate was placed in Envision for reading.
# The inhibition rate was calculated according to original data as follows:
# Inhibition %=(ZPE−sample detection value)/(ZPE−HPE)×100%
# The well containing 10 mM staurosporine on DAY3 (the first day of the assay is the day when compounds were added, and DAY3 is the day when reading is perfomed) was used as the HPE (100% inhibition control) well, and the well containing 0.1% DMSO on DAY3 was used as the ZPE (0% inhibition control) well. Each concentration of test compounds was tested in duplicate.
# Non-linear regression analysis was performed using the processed data and GraphPad Prism 6 analysis software to obtain a dose-response curve, and the half-inhibitory concentration (IC50) of the test compounds on OE19 cells was calculated.
# [10] = BT-474, footnote d: initial dilution concentration of compounds is 10 μM
# [11] = NCI-N87, footnote d: initial dilution concentration of compounds is 10 μM
# [12] = NCI-N87, 72 h, incubation for 3 days, Cell-Titer-Glo
# Chain of HER2 (ErbB2) (P04626 23-1255): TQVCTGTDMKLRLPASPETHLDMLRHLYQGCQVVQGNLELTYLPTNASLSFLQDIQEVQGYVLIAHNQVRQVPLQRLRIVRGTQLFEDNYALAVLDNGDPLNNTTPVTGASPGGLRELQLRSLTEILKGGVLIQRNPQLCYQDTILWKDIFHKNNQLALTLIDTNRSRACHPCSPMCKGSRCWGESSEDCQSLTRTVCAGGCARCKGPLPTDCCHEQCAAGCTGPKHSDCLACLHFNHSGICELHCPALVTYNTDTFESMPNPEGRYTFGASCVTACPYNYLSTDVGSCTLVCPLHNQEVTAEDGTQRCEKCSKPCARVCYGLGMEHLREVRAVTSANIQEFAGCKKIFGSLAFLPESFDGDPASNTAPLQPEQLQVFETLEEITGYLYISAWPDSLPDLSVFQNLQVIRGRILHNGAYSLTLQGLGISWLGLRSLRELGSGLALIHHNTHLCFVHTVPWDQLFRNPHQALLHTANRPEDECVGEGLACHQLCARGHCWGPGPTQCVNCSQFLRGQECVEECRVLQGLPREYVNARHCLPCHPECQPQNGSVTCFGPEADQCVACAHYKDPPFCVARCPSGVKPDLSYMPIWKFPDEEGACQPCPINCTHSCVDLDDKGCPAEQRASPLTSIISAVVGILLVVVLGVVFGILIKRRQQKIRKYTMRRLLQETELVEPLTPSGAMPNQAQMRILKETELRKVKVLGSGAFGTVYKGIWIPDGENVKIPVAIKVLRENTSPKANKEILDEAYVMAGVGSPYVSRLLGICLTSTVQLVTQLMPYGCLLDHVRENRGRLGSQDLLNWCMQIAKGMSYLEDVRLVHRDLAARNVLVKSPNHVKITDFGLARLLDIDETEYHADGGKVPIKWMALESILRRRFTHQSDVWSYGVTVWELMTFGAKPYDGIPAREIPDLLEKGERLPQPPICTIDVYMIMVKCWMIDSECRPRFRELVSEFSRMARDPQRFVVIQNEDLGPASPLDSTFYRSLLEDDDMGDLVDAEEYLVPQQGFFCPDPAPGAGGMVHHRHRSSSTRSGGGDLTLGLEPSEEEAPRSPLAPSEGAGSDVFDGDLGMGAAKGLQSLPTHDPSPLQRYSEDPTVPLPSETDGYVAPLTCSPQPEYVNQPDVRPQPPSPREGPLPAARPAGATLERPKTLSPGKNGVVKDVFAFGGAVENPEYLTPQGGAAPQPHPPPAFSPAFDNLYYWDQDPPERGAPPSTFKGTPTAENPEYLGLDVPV
# Chain of HER1 (ErbB1) (P00533 25-1210): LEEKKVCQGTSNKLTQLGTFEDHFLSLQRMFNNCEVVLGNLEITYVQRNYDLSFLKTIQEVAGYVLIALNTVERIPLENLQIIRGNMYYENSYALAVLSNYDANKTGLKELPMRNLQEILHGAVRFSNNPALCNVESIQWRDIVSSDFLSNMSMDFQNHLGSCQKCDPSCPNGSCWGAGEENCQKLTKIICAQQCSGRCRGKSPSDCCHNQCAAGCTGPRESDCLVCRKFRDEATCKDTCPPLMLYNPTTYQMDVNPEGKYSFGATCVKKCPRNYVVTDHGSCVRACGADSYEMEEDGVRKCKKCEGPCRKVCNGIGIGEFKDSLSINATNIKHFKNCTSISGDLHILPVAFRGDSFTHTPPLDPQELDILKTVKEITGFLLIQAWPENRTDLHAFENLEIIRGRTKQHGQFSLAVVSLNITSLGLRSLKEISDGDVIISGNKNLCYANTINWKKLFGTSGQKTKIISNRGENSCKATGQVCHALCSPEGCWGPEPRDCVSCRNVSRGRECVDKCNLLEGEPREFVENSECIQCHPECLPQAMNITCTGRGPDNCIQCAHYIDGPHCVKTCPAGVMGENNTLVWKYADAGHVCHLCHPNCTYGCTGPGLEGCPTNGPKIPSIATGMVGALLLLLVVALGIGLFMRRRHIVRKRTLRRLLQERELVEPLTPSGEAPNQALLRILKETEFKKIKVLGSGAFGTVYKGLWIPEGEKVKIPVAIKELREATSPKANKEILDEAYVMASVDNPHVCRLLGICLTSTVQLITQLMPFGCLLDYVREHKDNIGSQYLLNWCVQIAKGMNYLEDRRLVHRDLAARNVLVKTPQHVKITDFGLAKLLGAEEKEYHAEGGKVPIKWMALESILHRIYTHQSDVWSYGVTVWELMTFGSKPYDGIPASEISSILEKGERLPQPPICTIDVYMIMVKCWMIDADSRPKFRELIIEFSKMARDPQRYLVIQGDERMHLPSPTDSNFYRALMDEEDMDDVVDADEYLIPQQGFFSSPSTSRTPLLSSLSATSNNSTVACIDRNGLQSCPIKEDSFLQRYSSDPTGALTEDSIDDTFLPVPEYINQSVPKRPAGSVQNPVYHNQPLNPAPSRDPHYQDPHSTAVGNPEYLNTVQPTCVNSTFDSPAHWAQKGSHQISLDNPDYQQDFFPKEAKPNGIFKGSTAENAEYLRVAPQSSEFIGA
# Chain of HER4 (ErbB4) (Q15303 26-1308): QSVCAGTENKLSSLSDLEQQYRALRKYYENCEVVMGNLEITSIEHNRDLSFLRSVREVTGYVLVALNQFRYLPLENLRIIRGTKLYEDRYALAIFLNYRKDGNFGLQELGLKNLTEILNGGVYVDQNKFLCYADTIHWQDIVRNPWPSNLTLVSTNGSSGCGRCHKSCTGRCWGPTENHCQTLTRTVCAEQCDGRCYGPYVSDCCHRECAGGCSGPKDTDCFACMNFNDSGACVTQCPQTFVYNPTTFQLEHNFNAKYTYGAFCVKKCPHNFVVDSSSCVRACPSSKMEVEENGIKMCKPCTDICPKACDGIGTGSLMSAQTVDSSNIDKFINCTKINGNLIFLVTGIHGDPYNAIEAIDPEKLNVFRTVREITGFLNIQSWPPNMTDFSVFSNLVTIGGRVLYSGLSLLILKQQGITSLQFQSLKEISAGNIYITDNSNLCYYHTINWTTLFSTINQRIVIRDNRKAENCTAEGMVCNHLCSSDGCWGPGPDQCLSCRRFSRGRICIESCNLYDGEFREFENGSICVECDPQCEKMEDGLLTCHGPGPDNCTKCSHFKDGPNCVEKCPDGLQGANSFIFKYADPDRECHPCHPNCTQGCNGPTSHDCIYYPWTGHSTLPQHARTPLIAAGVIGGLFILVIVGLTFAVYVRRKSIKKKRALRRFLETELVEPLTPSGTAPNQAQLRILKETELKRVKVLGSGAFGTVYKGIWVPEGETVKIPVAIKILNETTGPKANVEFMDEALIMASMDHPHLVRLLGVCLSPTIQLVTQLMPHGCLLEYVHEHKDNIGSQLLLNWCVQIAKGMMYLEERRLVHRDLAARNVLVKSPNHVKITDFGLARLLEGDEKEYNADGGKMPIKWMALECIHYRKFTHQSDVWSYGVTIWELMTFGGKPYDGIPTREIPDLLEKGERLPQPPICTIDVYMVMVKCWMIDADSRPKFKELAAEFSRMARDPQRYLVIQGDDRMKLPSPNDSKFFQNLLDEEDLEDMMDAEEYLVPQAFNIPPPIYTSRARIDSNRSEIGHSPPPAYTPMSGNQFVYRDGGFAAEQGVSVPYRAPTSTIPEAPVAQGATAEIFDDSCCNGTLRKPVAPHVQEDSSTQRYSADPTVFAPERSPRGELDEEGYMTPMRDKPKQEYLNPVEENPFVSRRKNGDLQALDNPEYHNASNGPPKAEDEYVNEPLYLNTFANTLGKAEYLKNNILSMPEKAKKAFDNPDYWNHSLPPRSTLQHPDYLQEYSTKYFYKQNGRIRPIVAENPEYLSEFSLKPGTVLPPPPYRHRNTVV
compound,measurement,setting,value
C=CC(=O)N1CCC(Nc2cc3c(Nc4ccc(F)c(Cl)c4)ncnc3cc2OC)CC1 [Control compound 2],Tumor volume (mm^3) (Day 21),"[1]; NCI-N87 xenograft, Mean + SEM",541 ± 88 mm^3
same,T/C (%),[1]; day 21,89.35%
same,TGI (%),[1]; day 21,18.83%
same,Tmax,[2]; oral,2 h
same,half-life,[2]; oral,1.5 h
same,AUC(0-t),[2]; oral plasma exposure,82 µM·h
same,Cmax,[2]; oral plasma exposure,15.3 µM
C=CC(=O)N1C[C@H]2C[C@@H](C1)[C@H]2Nc1cc2c(Nc3ccc(Cl)c(Cl)c3F)ncnc2cc1OC [Example 9],IC50,[3],13 nM
same,IC50,[4]; [10],2.1 nM
same,IC50,[5],8 nM
same,IC50,[6],9 nM
same,IC50,[7]; [11],0.9 nM
C=CC(=O)N1C[C@H]2C[C@@H](C1)[C@H]2Oc1cc2c(Nc3ccc(Cl)c(Cl)c3F)ncnc2cc1OCCO [Example 13],IC50,[3],8 nM
same,IC50,[4]; [10],2 nM
same,IC50,[5],7 nM
same,IC50,[6],5 nM
same,IC50,[7]; [11],1.6 nM
C=CC(=O)N1C[C@H]2C[C@@H](C1)[C@H]2Oc1cc2c(Nc3ccc(Cl)c(Cl)c3F)ncnc2cc1OCCCN1CCOCC1 [Example 18],IC50,[3],12 nM
same,IC50,[4]; [10],2.4 nM
same,IC50,[5],5 nM
same,IC50,[6],9 nM
same,IC50,[7]; [11],1.3 nM
C=CC(=O)N1[C@@H]2CC[C@H]1C[C@H](Oc1cc3c(Nc4ccc(Cl)c(Cl)c4F)ncnc3cc1OCC)C2 [Example 21],IC50,[3],5 nM
same,IC50,"[4]; BT-474, 72 h, incubation for 3 days, Cell-Titer-Glo",0.46 nM
same,IC50,[5],3 nM
same,IC50,[6],12 nM
same,IC50,[7]; [12],0.35 nM
C=CC(=O)N1[C@@H]2CC[C@H]1C[C@H](Oc1cc3c(Nc4ccc(F)c(Cl)c4F)ncnc3cc1OC)C2 [Example 34],IC50,[3],4 nM
same,IC50,[8],0.27 nM
same,IC50,[5],2 nM
same,IC50,[6],5 nM
same,IC50,[7]; [12],0.42 nM
same,IC50,[9],0.001 nM
C=CC(=O)N1[C@@H]2CC[C@H]1C[C@H](Nc1cc3c(Nc4ccc(F)c(Cl)c4F)ncnc3cc1OC)C2 [Example 48],IC50,[3],11 nM
same,IC50,[8],0.17 nM
same,IC50,[5],4 nM
same,IC50,[6],9 nM
same,IC50,[9],0.24 nM

# From patent publication US20210078958A1, “QUINAZOLINE DERIVATIVE AND USE THEREOF” (MEDSHINE DISCOVERY INC., priority 2017, published 2021)
